Key:
[1] = system: A549/WT wild type human lung adenocarcinoma cell line; experiment: Cell growth assay (SRB) in A549/WT; assay type: cell-based; conditions: for Ratio of IC50 in the presence of dipyridamole / IC50 in the absence of dipyridamole: A549/WT, 4-N-acyl and 4-N-phosphoryl derivatives (Table 5); for IC50: Homo sapiens, A549, A549/WT, 4-N-acyl and 4-N-phosphoryl derivatives (Table 4)
Method: (§1) Biological activities of the Gemcitabine derivative (which may be referred to as analogues) described above were evaluated with two assays: • 1. Cell growth assay using the SRB assay in cell lines A549/WT, SW1573/WT, PANC-01 and BXPC-3. • 2. MTT assay in human bladder cancer cell line T-24
(§2) The following cell lines were tested: • A549/WT —wild type human lung adenocarcinoma cell line (1) • SW1573/WT —wild type non-small lung human cell line (2), • PANC-01—human pancreatic cancer cell line (3) • BXPC-3 -epithelial human pancreatic adenocarcinoma cells (4).
(§3) Dipyridamole inhibits adenosine uptake by erythrocytes platelets and endothelial cells in vitro and in vivo. Thus, the present inventors recruited dipyridamole as an inhibitor of the nucleoside transporters of the tumour cells to observe the behaviour of the presently described Gemcitabine derivatives.
(§4) From the IC50 of each compound in the presence of dipyridamole, by dividing it with the IC50 of each compound in the absence of dipyridamole, the present inventors calculated a ratio that compared the efficacy of the analogous presence of dipyridamole.
(§5) Ratio=IC50 in the presence of dipyridamole/IC50 in the absence of dipyridamole • FIG. 10. Ratio of IC50 of 4-N-acyl and 4-N-phosphoryl derivatives in the presence of, compared to in the absence of, dipyridamole, in four cell lines

[2] = system: SW1573/WT wild type non-small lung human cell line; experiment: Cell growth assay (SRB) in SW1573/WT; assay type: cell-based; conditions: for IC50: Homo sapiens, SW1573, SW 1573/WT, 4-N-acyl and 4-N-phosphoryl derivatives (Table 4); for Ratio of IC50 in the presence of dipyridamole / IC50 in the absence of dipyridamole: SW 1573/WT, 4-N-acyl and 4-N-phosphoryl derivatives (Table 5)
Method: as §1, §2, §3, §4, §5

[3] = system: PANC-01 human pancreatic cancer cell line; experiment: Cell growth assay (SRB) in PANC-01; assay type: cell-based; conditions: for Ratio of IC50 in the presence of dipyridamole / IC50 in the absence of dipyridamole: 4-N-acyl and 4-N-phosphoryl derivatives (Table 5); for IC50: Homo sapiens, Pancreatic cancer cell, 4-N-acyl and 4-N-phosphoryl derivatives (Table 4)
Method: as §1, §2, §3, §4, §5

[4] = system: BXPC-3 epithelial human pancreatic adenocarcinoma cells; experiment: Cell growth assay (SRB) in BXPC-3; assay type: cell-based; conditions: for Ratio of IC50 in the presence of dipyridamole / IC50 in the absence of dipyridamole: BXPC-3, 4-N-acyl and 4-N-phosphoryl derivatives (Table 5); for IC50: Homo sapiens, BXPC-3, BXPC-3, 4-N-acyl and 4-N-phosphoryl derivatives (Table 4)
Method: as §1, §2, §3, §4, §5

[5] = Human plasma stability; assay type: in vitro ADME; conditions: 37° C., 24 hours incubation, 0.1 μM, triplicates
Method: Human plasma stability of 4-N-ethyl carbamate
1. The final concentration of 4-N-ethyl carbamate Gemcitabine in human plasma was 0.1 μM.
2. Each sample was studied in triplicates.
3. The time points during incubation in which the present inventors evaluated the concentration of derivative were: 0, 1, 2, 4, 18 and 24 hours (FIG. 16). The derivative was stable after 24 hours incubation (96% still remaining).
4. A calibration curve was designed in order to quantify the concentration of derivative in human plasma (FIG. 17). Five calibrators were used at concentrations range of 0.01, 0.05, 0.1, 0.2 and 0.4 μM. Coefficient of determination (r^2) was calculated 0.999418.
5. Accuracy in terms of trueness and precision was evaluated through the analysis of three replicates at three concentration levels (low: 0.025 μM, mid: 0.08 μM and high: 0.3 μM). The trueness was expressed as the percentage difference between the calculated concentrations and the theoretical prepared concentrations while precision was expressed as CV%.
6. LOQ was determined at 0.01 μM with trueness and precision 8.49% and 9.66% respectively and within the acceptable limits for LOQ (<20%).
FIG. 17. In vitro stability of Ethyl-(4-N-Gemcitabine) carbamate (derivative 1) after 24 h incubation in human plasma at 37° C.

[6] = system: human bladder cancer cell line T-24; experiment: MTT assay, cell viability of T-24 cells; assay type: cell-based; conditions: 100 μM; for inhibition of cell growth (cell viability, MTT), order of potency: 5000 cells/well
Method: as §1
The cell viability of T-24 bladder cancer cells upon treatment with the Gemcitabine derivatives was evaluated using the MTT assay. T24 cancer cells were cultured in DMEM (Gibco) high glucose supplemented with 10% FBS and 1% Penicillin/Streptomycin (100 U/mL Penicillin and 100 μg/mL Streptomycin), at 37 ° C. in humidified atmosphere of 5% CO2.
For the MTT assay 5000 or 10000 cells were seeded in triplicates in 96-well plates. Stock solutions of each derivative were prepared in DMSO/EtOH (1:1 v/v). Then, the cells were treated and incubated with 100 μM of each compound for 24 or 48 hours. After the completion of the incubation time, 10 μL of MTT solution (5 mg/ml in PBS buffer) were added in each well and incubated for 4 hrs. Finally, to stop the reaction, the supernatant from each well was removed and 100 μL of stop mix solution (20% SDS in 50% dimethyl formamide in water) were added. The plate remained in darkness for 2 h and the absorbance was measured at 540 nm via a microplate ELISA reader (Awareness Technology Inc.) with a reference at 630 nm. The % cell viability for each compound was calculated relatively to the absorbance of the untreated cells (control).
Two sets of experiments were performed at concentrations of 100 μM, and the absorption of formazan was measured after 24 and 48 hours.
Another experiment was conducted with the MTT assay where the compounds were incubated for 48 hours at […] derivative concentration where the number of cells seeded per well was 10000.

[7] = Photolysis under UV irradiation (absorption spectrum); assay type: physicochemical; conditions: 10 μM in MeOH, UV lamp at 366 nm for 240 minutes, room temperature
From the text: After ultraviolet irradiation at a specific photo-digested group wavelength in the range from 350 to 500 nm (or greater than 700 nm when utilising two photon excitation), the active form of the encapsulated molecule is released irreversibly. Photo-inclusion has often been performed in vitro for the spatio-temporal control of biological processes and the release of light-induced payload. […] The present inventors believe that this dual strategy is of great value for therapeutic applications while it requires non-invasive and space-time drug activation. In order to show this dual drug release mechanism, the present inventors performed photolysis experiments (FIG. 2).
The spectra of derivative 7 (10 μM) and Gemcitabine (5 μM) were recorded on a Perkin Elmer Lambda 25 spectrometer at room temperature. The samples were solubilized in MeOH grade HPLC grade and irradiated with UV lamp at 366 nm for 240 minutes. The present inventors noticed that in the range of 280-290 nm and 320-330 nm there is a decrease in the absorption intensity and at the same time there is an increase in intensity to 250-270 nm. […] This theory is supported by the increase in the band corresponding to Gemcitabine.

Row | SMILES | Ratio of IC50 in the presence of dipyridamole / IC50 in the absence of dipyridamole [1] | IC50 [1] [nM] | IC50 [2] [nM] | Ratio of IC50 in the presence of dipyridamole / IC50 in the absence of dipyridamole [2] | Ratio of IC50 in the presence of dipyridamole / IC50 in the absence of dipyridamole [3] | IC50 [3] [nM] | Ratio of IC50 in the presence of dipyridamole / IC50 in the absence of dipyridamole [4] | IC50 [4] [nM] | still remaining after incubation in human plasma [5] [%] | inhibition of cell growth (cell viability, MTT), order of potency ([6]; 24 hours) | inhibition of cell growth (cell viability, MTT), order of potency ([6]; 48 hours) | cell viability (MTT), most potent derivatives ([6]; 10000 cells/well, 48 hours) | photolysis on irradiation (absorption spectrum over time) [7]
1 | CCOC(=O)Nc1ccn(C2OC(CO)C(O)C2(F)F)c(=O)n1 (centres unmarked) [Derivative 1, Ethyl-(4-N-Gemcitabine) carbamate] | 16.2 | 1600 | 1150 | 21 | 4.1 | 3900 | 23.2 | 860 | 96 | – | – | – | –
2 | O=C(Nc1ccn(C2OC(CO)C(O)C2(F)F)c(=O)n1)OCCl (centres unmarked) [Derivative 4] | 6.3 | 100 | 100 | 10 | 22 | 45 | 4.5 | 100 | – | greater potency than the parent drug Gemcitabine | 17>4>11 and then Gemcitabine | most potent | –
3 | COc1cc(COC(=O)Nc2ccn(C3OC(CO)C(O)C3(F)F)c(=O)n2)c([N+](=O)[O-])cc1OC (centres unmarked) [Derivative 7, (4,5-dimethoxy)-2-nitrobenzyl-(4-N-Gemcitabine) carbamate] | 14.2 | 460 | 440 | 11 | 3.3 | 1500 | 13.9 | 230 | – | – | – | – | release of Gemcitabine
